Results on one compound are retold here after patent publication US10724099B2, “Multiplex methods to assay mixed cell populations simultaneously” (The Broad Institute, Inc., priority 2012, dated 2020).

What all share (test): DiscoveRx KinomeScan binding
Experiment [1] concerns the target T1, DCAMKL1 (Homo sapiens, UniProt O15075).
T1 construct: purchased DiscoveRx scanEDGE panel
The settings on record: Entrez DCLK1.

For experiment [2], the target named is T2, FLT3 (Homo sapiens, UniProt P36888).
T2 construct: purchased DiscoveRx scanEDGE panel
T2 sequence (P36888 27-993): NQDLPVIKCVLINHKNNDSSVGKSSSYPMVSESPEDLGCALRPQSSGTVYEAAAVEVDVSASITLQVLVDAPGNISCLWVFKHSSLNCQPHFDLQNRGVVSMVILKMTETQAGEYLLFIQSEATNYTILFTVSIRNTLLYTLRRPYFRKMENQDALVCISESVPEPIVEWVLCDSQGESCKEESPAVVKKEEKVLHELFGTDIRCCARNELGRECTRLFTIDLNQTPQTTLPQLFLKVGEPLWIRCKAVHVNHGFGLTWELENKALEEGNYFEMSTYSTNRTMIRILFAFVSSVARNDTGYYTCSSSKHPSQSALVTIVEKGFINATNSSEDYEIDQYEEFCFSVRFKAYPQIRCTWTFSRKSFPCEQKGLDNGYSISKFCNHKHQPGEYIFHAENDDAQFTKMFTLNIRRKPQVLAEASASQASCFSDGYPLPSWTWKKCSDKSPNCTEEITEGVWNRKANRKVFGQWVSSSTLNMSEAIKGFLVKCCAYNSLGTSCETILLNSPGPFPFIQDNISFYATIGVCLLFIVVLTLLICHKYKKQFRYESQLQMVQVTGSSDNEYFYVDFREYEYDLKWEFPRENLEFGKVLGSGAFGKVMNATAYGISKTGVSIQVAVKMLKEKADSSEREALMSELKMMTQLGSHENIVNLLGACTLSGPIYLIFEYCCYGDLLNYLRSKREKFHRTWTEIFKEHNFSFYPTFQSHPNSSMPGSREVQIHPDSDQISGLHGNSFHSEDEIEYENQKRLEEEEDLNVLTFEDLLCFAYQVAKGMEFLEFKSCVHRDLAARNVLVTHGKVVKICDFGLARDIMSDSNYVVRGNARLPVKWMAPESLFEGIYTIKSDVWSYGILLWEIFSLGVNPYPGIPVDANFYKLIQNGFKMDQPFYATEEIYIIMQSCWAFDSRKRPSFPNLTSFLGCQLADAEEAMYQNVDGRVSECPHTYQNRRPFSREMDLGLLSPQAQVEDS

The target in experiment [3] is T3, PIM1 (Homo sapiens, UniProt P11309).
T3 construct: purchased DiscoveRx scanEDGE panel
T3 sequence (P11309 whole entry): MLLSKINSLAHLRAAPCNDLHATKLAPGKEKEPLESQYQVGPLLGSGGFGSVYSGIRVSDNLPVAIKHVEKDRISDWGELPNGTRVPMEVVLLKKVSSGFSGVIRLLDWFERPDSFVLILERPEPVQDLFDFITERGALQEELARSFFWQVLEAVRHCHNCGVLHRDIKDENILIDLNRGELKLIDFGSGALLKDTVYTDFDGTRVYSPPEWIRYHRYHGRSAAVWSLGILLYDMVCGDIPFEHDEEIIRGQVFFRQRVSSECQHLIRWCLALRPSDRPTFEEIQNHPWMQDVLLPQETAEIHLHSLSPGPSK

For experiment [4], the target named is T4, ABL1---phosphorylated (Homo sapiens, UniProt P00519).
T4 construct: purchased DiscoveRx (KINOMEscan scanEDGE panel)
T4 sequence (P00519 whole entry): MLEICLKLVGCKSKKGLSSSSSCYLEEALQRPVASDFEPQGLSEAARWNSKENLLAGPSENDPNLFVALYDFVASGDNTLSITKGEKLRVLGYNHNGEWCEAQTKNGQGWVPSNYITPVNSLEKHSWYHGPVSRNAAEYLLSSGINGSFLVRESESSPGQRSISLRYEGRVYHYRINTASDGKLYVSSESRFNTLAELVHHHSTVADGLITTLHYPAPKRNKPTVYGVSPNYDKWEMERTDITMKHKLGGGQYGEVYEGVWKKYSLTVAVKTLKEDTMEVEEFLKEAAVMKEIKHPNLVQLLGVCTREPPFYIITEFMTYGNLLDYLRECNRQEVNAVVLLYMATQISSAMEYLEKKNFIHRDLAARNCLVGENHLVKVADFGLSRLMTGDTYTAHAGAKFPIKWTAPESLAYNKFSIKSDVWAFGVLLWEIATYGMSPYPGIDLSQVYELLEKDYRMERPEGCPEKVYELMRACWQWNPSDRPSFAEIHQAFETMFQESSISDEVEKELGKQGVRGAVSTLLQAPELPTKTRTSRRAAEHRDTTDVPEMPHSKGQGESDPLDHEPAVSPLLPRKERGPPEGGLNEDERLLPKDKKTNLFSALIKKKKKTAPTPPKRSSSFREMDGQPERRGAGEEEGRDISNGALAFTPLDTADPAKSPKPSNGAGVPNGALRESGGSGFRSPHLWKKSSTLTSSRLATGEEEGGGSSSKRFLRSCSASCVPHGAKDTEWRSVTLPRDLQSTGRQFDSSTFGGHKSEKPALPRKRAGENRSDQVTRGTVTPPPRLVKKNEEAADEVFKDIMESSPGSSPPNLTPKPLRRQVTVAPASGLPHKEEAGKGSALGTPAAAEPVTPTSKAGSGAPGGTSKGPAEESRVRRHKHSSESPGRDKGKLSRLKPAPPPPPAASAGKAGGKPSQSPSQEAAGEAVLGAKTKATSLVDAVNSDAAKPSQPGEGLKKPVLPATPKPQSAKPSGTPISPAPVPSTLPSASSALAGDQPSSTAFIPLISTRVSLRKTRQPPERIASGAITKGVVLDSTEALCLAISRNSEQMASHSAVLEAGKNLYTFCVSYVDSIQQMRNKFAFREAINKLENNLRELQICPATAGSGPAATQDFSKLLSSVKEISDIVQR
The settings on record: Entrez ABL1.

Each structure is given as a SMILES string.

T1 sequence (O15075 whole entry): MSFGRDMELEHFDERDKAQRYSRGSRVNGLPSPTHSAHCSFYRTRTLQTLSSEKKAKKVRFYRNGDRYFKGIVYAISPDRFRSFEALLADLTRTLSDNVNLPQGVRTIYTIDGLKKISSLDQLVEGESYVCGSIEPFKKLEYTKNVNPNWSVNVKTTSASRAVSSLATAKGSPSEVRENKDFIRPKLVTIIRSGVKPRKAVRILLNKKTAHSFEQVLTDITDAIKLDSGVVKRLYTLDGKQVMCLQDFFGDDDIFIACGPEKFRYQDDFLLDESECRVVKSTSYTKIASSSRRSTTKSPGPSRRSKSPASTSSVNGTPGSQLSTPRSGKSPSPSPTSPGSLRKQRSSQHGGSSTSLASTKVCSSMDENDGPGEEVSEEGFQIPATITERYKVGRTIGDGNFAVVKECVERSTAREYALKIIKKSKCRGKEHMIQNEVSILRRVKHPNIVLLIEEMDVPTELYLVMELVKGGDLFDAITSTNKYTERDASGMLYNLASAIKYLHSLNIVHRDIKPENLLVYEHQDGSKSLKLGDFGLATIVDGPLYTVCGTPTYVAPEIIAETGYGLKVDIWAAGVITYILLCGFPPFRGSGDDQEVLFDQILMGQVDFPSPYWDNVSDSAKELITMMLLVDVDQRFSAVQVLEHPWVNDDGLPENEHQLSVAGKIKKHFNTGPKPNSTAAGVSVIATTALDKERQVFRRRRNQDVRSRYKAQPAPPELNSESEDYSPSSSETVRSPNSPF

In the case of `COc1ccc(NC(=O)Nc2ccc3c(c2)C(=O)N([C@@H](C)CO)C[C@H](C)[C@H](CN(C)Cc2ccc4c(c2)OCO4)O3)cc1` [BRD-7880], the “Percent Control” value in experiment [1] is listed as 37%; in experiment [2], 65%; in experiment [3] it was 87%; in experiment [4] it was 88%.
